The results in this text go back to patent publication US8735620B2, “Processes for preparing (E)-styrylbenzylsulfone compounds and uses thereof for treating proliferative disorders” (priority 2008, dated 2014).

Molecules are shown by their SMILES. Where two headings read alike, the source gives them in different places.

For orientation: IC50 means the midpoint of a concentration-inhibition curve.

What all share (type): cell-based
Series [1] relates to DU145 (human prostate tumor cell line). In words: Cytotoxicity assay (trypan blue exclusion, 96 h), DU145. The following applies: DU145, 96 h treatment; read-out: DU145 IC50.
From the text: (§1) Tissue Culture and Reagents: Paclitaxel was purchased from Sigma. Cell lines were purchased from ATCC. Cell lines were routinely grown in DMEM or RPM1 (CellGro) supplemented with 10% fetal bovine serum (Atlas) and 1 unit/mL penicillin-streptomycin (Gibco).
Series [2] concerns DLD1 (human colorectal tumor cell line). In words: Cytotoxicity assay (trypan blue exclusion, 96 h), DLD1. The settings on record: DLD1, 96 h treatment; read-out: DLD1 IC50.
From the text: as §1
In series [3] the test system is H157 (human lung tumor cell line). In words: Cytotoxicity assay (trypan blue exclusion, 96 h), H157. The following applies: H157, 96 h treatment; read-out: H157 IC50.
From the text: as §1
Series [4] relates to BT20, DU145, H157 and DLD1 cell lines. In words: In vitro cytotoxicity, four human tumor cell lines (SAR discussion). The settings on record: for activity in cell-killing assays: at the highest concentration (20 μM) tested. As for the experimental part:
A number of tumor cell lines were tested using a dose response end point assay system. The cells were grown in either DMEM or RPMI supplemented with 10% fetal bovine serum and 1 unit/mL Penicillin-Streptomycin solution. The tumor cells were plated into 6 well dishes at a cell density of 1.0×10^5 cells/mL/well and compounds were added 24 h later at various concentrations. Cell counts were determined from duplicate wells after 96 h of treatment. The total number of viable cells was determined by trypan blue exclusion.
Following the synthesis of this group of compounds, their in vitro cytotoxicity was assessed using four different human tumor cell lines derived from human breast (BT20), prostate (DU145), lung (H157) and colorectal (DLD1) cancers. […] In a majority of the compounds described here, a methoxy group was kept constant at the 4th position on the aromatic ring of the benzyl moiety.

Series [5] relates to BT20 (human breast tumor cell line). In words: Cytotoxicity assay (trypan blue exclusion, 96 h), BT20. The settings on record: BT20, 96 h treatment.
From the text: as §1

Take `COc1ccc(CS(=O)(=O)/C=C/c2cc(OC)c(OC)cc2OC)cc1` [6q, (E)-2,4,5-Trimethoxystyryl-4-Methoxybenzyl sulfone]: the IC50 in series [1], in series [2], in series [3] and in series [5] was more than 20 µM throughout. The “activity in cell-killing assays” value in series [4] was “totally inactive”.
For the molecule `COc1ccc(CS(=O)(=O)/C=C/c2ccc(F)c(OC)c2)cc1` [6i, (E)-4-Fluoro-3-methoxystyryl-4-Methoxybenzylsulfone], the IC50 in series [1] worked out at 10 µM. For the same molecule, the “cytotoxic activity, SAR statement” value in series [4] (four human tumor cell lines) was “loss of activity”.
For the molecule `COc1ccc(CS(=O)(=O)/C=C/c2ccccc2OC)cc1` [6f, (E)-2-Methoxystyryl-4-Methoxybenzyl sulfone], the IC50 in series [1] turned out to be 3.5 µM; in series [2], 7.5 µM; in series [3], 5 µM; in series [5], 5 µM. Moreover, the “cytotoxic activity, SAR statement” value in series [4] (four human tumor cell lines) is given as “partially recovered the lost activity”.
As to `COc1ccc(CS(=O)(=O)/C=C/c2cc(OC)c(OC)c(OC)c2)cc1` [6t, (E)-3,4,5-Trimethoxystyryl-4-Methoxybenzyl sulfone], the IC50 in series [1], in series [2], in series [3] and in series [5] was more than 20 µM throughout. Moreover, the “activity in cell-killing assays” value in series [4] was “totally inactive”.
In the case of `COc1ccc(CS(=O)(=O)/C=C/c2ccc(OC)cc2OC)cc1` [6n, (E)-2,4-Dimethoxystyryl-4-Methoxybenzyl sulfone], the IC50 in series [1], in series [2], in series [3] and in series [5] was more than 20 µM in each case.
As for `COc1ccc(CS(=O)(=O)/C=C/c2cc(OC)cc(OC)c2)cc1` [6p, (E)-3,5-Dimethoxystyryl-4-Methoxybenzyl sulfone], the IC50 in series [1], in series [2], in series [3] and in series [5] was more than 20 µM throughout.
As for `COc1ccc(CS(=O)(=O)/C=C/c2ccc([N+](=O)[O-])cc2)cc1` [6d, (E)-4-Nitrostyryl-4-Methoxybenzyl sulfone], the IC50 came to 7.5 µM in series [1], 5 µM in series [2], 7.5 µM in series [3] and 5 µM in series [5]. Besides, the “cytotoxic activity, SAR statement” value in series [4] (four human tumor cell lines) was “gradually decreased the activity”.
With `COc1ccc(/C=C/S(=O)(=O)Cc2ccc(OC)cc2)cc1` [6a, (E)-4-Methoxystyryl-4-Methoxybenzyl sulfone], the IC50 in series [1], in series [2], in series [3] and in series [5] was more than 20 µM throughout. The “cytotoxic activity, SAR statement” value in series [4] is on record as “gradually decreased the activity”.
As to `COc1ccc(CS(=O)(=O)/C=C/c2ccc(Cl)cc2)cc1` [6c, (E)-4-Chlorostyryl-4-Methoxybenzyl sulfone], the IC50 in series [1] turned out to be 2.5 µM; in series [2] it was 3 µM; in series [3], 3.5 µM; in series [5], 2 µM. In addition, the “cytotoxic activity, SAR statement” value in series [4] is on record as “gradually decreased the activity”.
Regarding `COc1ccc(CS(=O)(=O)/C=C/c2ccc(C)cc2C)cc1` [6h, (E)-2,4-Dimethylstyryl-4-Methoxybenzyl sulfone], the IC50 in series [1] is 12 µM. For the same molecule, in series [4], the “cytotoxic activity, SAR statement” value is on record as “low level of cytotoxicity”.
On to `COc1cc(OC)c(/C=C/S(=O)(=O)Cc2ccc(OC(F)(F)F)cc2)c(OC)c1` [6x, (E)-2,4,6-Trimethoxystyryl-4-Trifluoromethoxybenzyl sulfone], for which the IC50 is 4 µM in series [1], 4 µM in series [2], 6 µM in series [3] and 3 µM in series [5].
Turning to `COc1ccc(CS(=O)(=O)/C=C/c2ccc(N)cc2)cc1` [6e, (E)-4-Aminostyryl-4-Methoxybenzyl sulfone], the IC50 in series [1], in series [2], in series [3] and in series [5] was more than 20 µM throughout. Moreover, the “cytotoxic activity, SAR statement” value in series [4] was “gradually decreased the activity”.
With `COc1ccc(CS(=O)(=O)/C=C/c2c(C)cccc2C)cc1` [6l, (E)-2,6-Dimethylstyryl-4-Methoxybenzyl sulfone], the IC50 in series [1], in series [2], in series [3] and in series [5] was more than 20 µM throughout. In series [4], the “cytotoxic activity, SAR statement” value was “low level of cytotoxicity”.
For the molecule `COc1ccc(CS(=O)(=O)/C=C/c2ccc(OC)c(OC)c2OC)cc1` [6r, (E)-2,3,4-Trimethoxystyryl-4-Methoxybenzyl sulfone], the half-maximal inhibitory concentration (IC50) in series [1], in series [2], in series [3] and in series [5] was more than 20 µM in each case. Also, the “activity in cell-killing assays” value in series [4] is “totally inactive”.
`COc1ccc(CS(=O)(=O)/C=C/c2c(OC)cc(O)cc2OC)cc1` [6u, (E)-2,6-Dimethoxy-4-hydroxystyryl-4-Methoxybenzyl sulfone]: the IC50 in series [1], in series [2], in series [3] and in series [5] was more than 20 µM throughout. Besides, the “cytotoxic activity, SAR statement” value in series [4] (four human tumor cell lines) is “either a reduced level or total loss of activity”.
Take `COc1ccc(CS(=O)(=O)/C=C/c2c(C)cc(C)cc2C)cc1` [6w, (E)-2,4,6-Trimethylstyryl-4-Methoxybenzyl sulfone]: the IC50 in series [1], in series [2], in series [3] and in series [5] was more than 20 µM in each case. In addition, the “cytotoxic activity, SAR statement” value in series [4] is “inactive”.
`COc1ccc(CS(=O)(=O)/C=C/c2ccc(F)cc2)cc1` [6b, (E)-4-Fluorostyryl-4-Methoxybenzyl sulfone]: the IC50 is 1.25 µM in series [1], 2 µM in series [2], 2.5 µM in series [3] and 1.5 µM in series [5]. Further, the “cytotoxic activity, SAR statement” value in series [4] is listed as “moderate cytotoxic activity”.
Consider `COc1cc(OC)c(/C=C/S(=O)(=O)Cc2ccc(C#N)cc2)c(OC)c1` [6ag, (E)-2,4,6-trimethoxystyryl-4-Cyanobenzyl sulfone], for which the concentration for half-maximal inhibition (IC50) in series [1] was found to be 7.5 µM; in series [5] it was 12.5 µM. Besides, the “cytotoxic activity, SAR statement” value in series [4] is “substantially lost activity”.
Take `COc1cc(OC)c(/C=C/S(=O)(=O)Cc2ccc(C(=O)O)cc2)c(OC)c1` [6ah, (E)-2,4,6-trimethoxystyryl-4-Carboxybenzyl sulfone]: the IC50 in series [1] was found to be 10 µM; in series [3], 17.5 µM. Moreover, the “cytotoxic activity, SAR statement” value in series [4] (four human tumor cell lines) is “substantially lost activity”.
For `COc1cc(OC)c(/C=C/S(=O)(=O)Cc2ccc(OC)c(OC)c2OC)c(OC)c1` [6ad, (E)-2,4,6-Trimethoxystyryl-2,3,4-Trimethoxybenzyl sulfone], the IC50 in series [1] came out at 12.5 µM.
As to `COc1ccc(CS(=O)(=O)/C=C/c2cc(OC)c(OC)c(OC)c2)cc1O` [6y, (E)-3,4,5-Trimethoxystyryl-3-Hydroxy-4-Methoxybenzyl Sulfone], the IC50 stood at 5 µM in series [1], 10 µM in series [2], 10 µM in series [3] and 7.5 µM in series [5].
For the molecule `COc1cc(OC)c(/C=C/S(=O)(=O)Cc2ccc(Cl)cc2)c(OC)c1` [6ae, (E)-2,4,6-trimethoxystyryl-4-chlorobenzyl sulfone], the IC50 in series [1] came to 7.5 µM; in series [5] it was 10 µM. Further, the “cytotoxic activity, SAR statement” value in series [4] is reported as “substantially lost activity”.
`COc1ccc(CS(=O)(=O)/C=C/c2ccc(OC)c(OC)c2)cc1` [6j, (E)-3,4-Dimethoxystyryl-4-Methoxybenzyl sulfone]: the concentration for half-maximal inhibition (IC50) in series [1], in series [2], in series [3] and in series [5] was more than 20 µM each time.
On to `COc1ccc(CS(=O)(=O)/C=C/c2c(OC)cc(O)cc2OC)cc1O` [6z, (E)-2,6-Dimethoxy-4-hydroxystyryl-3-Hydroxy-4-Methoxybenzyl Sulfone], for which the IC50 in series [1] was 0.5 µM; in series [2], 0.5 µM; in series [3], 0.5 µM; in series [5], 0.25 µM.
Take `COc1cc(OC)c(/C=C/S(=O)(=O)Cc2cc(OC)c(OC)c(OC)c2)c(OC)c1` [6ac, (E)-2,4,6-trimethoxystyryl-3,4,5-Trimethoxybenzyl sulfone]: the 50% inhibitory concentration (IC50) in series [1], in series [2], in series [3] and in series [5] was more than 20 µM in each case.
For `COc1cc(OC)c(/C=C/S(=O)(=O)Cc2ccc(O)cc2)c(OC)c1` [6ai, (E)-2,4,6-trimethoxystyryl-4-Hydroxybenzyl sulfone], in series [1], the concentration for half-maximal inhibition (IC50) stood at 7.5 µM. Also, the “cytotoxic activity, SAR statement” value in series [4] (four human tumor cell lines) is given as “substantially lost activity”.
For `COc1cc(OC)c(/C=C/S(=O)(=O)Cc2ccc([N+](=O)[O-])cc2)c(OC)c1` [6af, (E)-2,4,6-trimethoxystyryl-4-Nitrobenzyl sulfone], in series [4] (four human tumor cell lines), the “cytotoxic activity, SAR statement” value is reported as “substantially lost activity”.
For `COc1ccc(CS(=O)(=O)/C=C/c2cc(OC)ccc2OC)cc1` [6o, (E)-2,5-Dimethoxystyryl-4-Methoxybenzyl sulfone], the IC50 in series [1], in series [2], in series [3] and in series [5] was more than 20 µM throughout.
